The values below come from publication PMC10313808, “Lipoxygenase inhibitory synthetic derivatives of methyl gallate regulate gene expressions of COX-2 and cytokines to reduce animal model arthritis” (Scientific Reports, 2023).

Data set [1] concerns the target T1, Lipoxidase from Glycine max (15- LOX) (Glycine max, UniProt P08170).
T1 construct: purchased Sigma (Sigma-Aldrich, UK)
T1 sequence (P08170 1-839): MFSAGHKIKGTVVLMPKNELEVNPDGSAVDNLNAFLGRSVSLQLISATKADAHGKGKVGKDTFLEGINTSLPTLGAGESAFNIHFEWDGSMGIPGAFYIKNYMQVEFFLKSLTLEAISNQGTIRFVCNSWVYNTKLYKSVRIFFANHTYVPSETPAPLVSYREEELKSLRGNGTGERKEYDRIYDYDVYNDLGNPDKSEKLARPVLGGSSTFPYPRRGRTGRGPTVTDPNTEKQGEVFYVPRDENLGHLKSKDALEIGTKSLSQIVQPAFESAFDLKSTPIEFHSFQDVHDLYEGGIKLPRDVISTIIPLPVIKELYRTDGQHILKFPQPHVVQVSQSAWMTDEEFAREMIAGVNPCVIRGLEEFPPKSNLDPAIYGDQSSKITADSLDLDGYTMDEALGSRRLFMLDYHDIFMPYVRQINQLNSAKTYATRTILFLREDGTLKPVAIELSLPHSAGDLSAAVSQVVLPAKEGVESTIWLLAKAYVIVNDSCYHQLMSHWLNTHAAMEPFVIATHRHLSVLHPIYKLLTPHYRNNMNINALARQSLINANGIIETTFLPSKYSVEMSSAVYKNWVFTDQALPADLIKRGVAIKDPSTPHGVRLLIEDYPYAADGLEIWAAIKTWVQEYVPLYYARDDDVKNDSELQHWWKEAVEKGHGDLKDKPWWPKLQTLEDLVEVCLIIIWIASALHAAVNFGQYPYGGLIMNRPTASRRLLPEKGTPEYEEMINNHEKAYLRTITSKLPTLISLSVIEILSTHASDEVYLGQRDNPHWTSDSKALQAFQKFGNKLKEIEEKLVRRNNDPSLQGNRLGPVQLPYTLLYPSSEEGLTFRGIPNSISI
Briefly: Michaelis–Menten enzyme kinetics (Lineweaver-Burk). Particulars: for IC50: Cheng–Prusoff from Ki. It is filed as biochemical. On the procedure:
To identify the mode of inhibition, enzyme kinetics assay was performed with MGSDs. For the kinetic analysis different substrate concentrations of 18, 27, 36, 45, 54, 63 µM were prepared in 0.2 mM borate buffer (H 9)[16]. The assay mixture was made of 50 µL of LOX, 50 µL of the test solution and different concentrations of the substrate. The final volume was made upto 2 mL with corresponding borate buffer quantity. The activity of LOX was measured by the formation of […], which was monitored at 234 nm on spectrophotometer, (HITACHI U 2900, Japan). The reaction was measured at a time span of 300 s. The same experiment was repeated in the presence of 0.1, 0.08 and 0.06 μM concentration of MGSDs. The Line Weaver-Burk plot was constructed and Michaelis–Menten constant (Km) and Maximal Velocity (Vmax) were determined from the plot. From the Km and Vmax obtained, the inhibitor constant, Ki was calculated using the following equation derived from the Michaelis–Menten Equation: Km′=Km1+I0/Ki. The IC50was calculated using the Cheng–Prusoff equation, Ki=IC50/1+S/Km.

In another data set the target is T2, LOX (Glycine max, UniProt P08170).
T2 construct: purchased Sigma (Sigma-Aldrich, UK)
T2 sequence (P08170 1-839): T1 sequence (P08170 1-839)
Briefly: Fluorescence quenching studies. The format is binding. To be noted: 296 K, pH 9. An excerpt:
To analyze the type of mechanism, the data of fluorescence of LOX was plotted, as relative fluorescence intensity (F0/F), against MGSDs. Here F and F0 are the fluorescence intensity in the presence and absence of MGSDs respectively. The Stern–Volmer constants were obtained from the plot by linear regression using the expression: F0/F=1+KsvQ.
Ksv is the Stern–Volmer constant and [Q] is the respective concentration of derivatives. Ksv which depicts the binding affinity between the fluorophore (protein) and quencher (ligand), were obtained from the slopes of the plot (Supplementary Fig. 15). […] The Fluorescence quenching data provided information about the binding constant (K), the number of binding sites (n), and the values could be arrived by applying the equation. Log F0-F/F=log K+nlogQ.
The Fluoromax-4 spectrophotometer (Spectra-NanoLED source 278) was used for studying fluorescence quenching of the compound. Bandwidth set at 5 nm for both excitation and emission spectra. The wavelength was set for excitation at 280 nm and the emission was recorded at 290–450 nm using 1.0 cm cell at 296 K temperature. The LOX with a concentration of 7 μM, dissolved in borate buffer at pH 9 and ligands at the concentrations of 35, 70, 105, 140, 175, 210, 245 and 280 μM were used for the experiment.

Data set [2] is described as follows: Solubility noted on sample preparation. It is filed as physicochemical. Particulars: water.

As a reminder, the IC50 is the concentration needed to halve the response being measured. The Ki is the dissociation constant of the complex between target and ligand, obtained from inhibition or displacement. Low values mean higher affinity, high ones lower affinity. For the molecule `O=C(O)COc1cc(C(=O)O)cc(OCC(=O)O)c1OCC(=O)O` [MGSD 1, 2,2′,2″-((5-carboxybenzene-1,2,3-triyl)tris(oxy)) tri acetic acid], the figures for the IC50 in data set [1] and in data set [1] (abstract) were 0.102 µM and 0.1 µM, respectively. Further, in data set [1] (linoleic acid substrate, competitive), affinity was put at a Ki of 0.03 µM. Moreover, on LOX (read-out: Binding constant (K) (converted)), the Kd was 752 µM. Further, the “Quenching constant (Ksv)” value at LOX (Stern–Volmer) stood at 6200 M⁻¹. The solubility result in data set [2] is given as “soluble in water”.
